The compounds below were run against T1, human Edg-1 receptor (Homo sapiens, UniProt P21453) (assay: GTP-γ-S assay using human Edg-1 receptors (scintillation proximity assay, membrane preparation from CHO Flp-In cell line)). Conditions: example compound at 10 μM; relative to 10 μM S1P; GTP-γ-S SPA, human Edg-1 membranes.
T1 construct: expressed in transfected cells; membrane preparation
Type: biochemical
How it was run: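 Scintillation proximity GTP-γ-S binding assay measuring receptor activation. Membranes prepared from a CHO Flp-In line stably overexpressing N-terminally FLAG-tagged human Edg-1.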

T1 sequence (P21453 whole entry): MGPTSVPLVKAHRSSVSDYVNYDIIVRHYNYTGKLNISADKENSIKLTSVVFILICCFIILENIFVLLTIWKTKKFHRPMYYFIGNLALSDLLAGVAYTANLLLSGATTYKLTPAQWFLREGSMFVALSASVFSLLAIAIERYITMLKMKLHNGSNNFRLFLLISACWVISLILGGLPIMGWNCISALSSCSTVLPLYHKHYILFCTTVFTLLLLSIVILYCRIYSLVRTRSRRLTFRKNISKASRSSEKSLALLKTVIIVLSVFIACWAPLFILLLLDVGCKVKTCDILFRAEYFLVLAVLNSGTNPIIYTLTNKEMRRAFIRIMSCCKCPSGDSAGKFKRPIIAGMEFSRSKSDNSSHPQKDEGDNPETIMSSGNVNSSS

% Activation (Edg-1 receptor activation in percent of the activation by 10 μM S1P) [%] | SMILES
87 | Clc1ccc(Cc2nc(OCC3CC3)c3nc(-c4ccc(N5CCOCC5)nc4)oc3n2)cc1 [Example 139]
92 | CCCOc1nc(CN2CCCC2COC)nc2oc(-c3cccc(F)c3)nc12 (stereo not drawn) [Example 140]
85 | C=CCOc1nc(Cc2ccc(Cl)c(Cl)c2)nc2oc(-c3cccc(F)c3)nc12 [Example 141]
75 | CCCOc1nc(CN2C(=O)CC(C)(C)CC2=O)nc2oc(-c3cccc(F)c3)nc12 [Example 142]
73 | CCCOc1nc(CN2CCCC2Cc2ccccc2)nc2oc(-c3cccc(F)c3)nc12 (stereo not drawn) [Example 143]
67 | CCCOc1nc(CN2CCC(OC)CC2)nc2oc(-c3cccc(F)c3)nc12 [Example 145]
56 | CCCOc1nc(CN2CC(=O)N(Cc3ccccc3)C2=O)nc2oc(-c3cccc(F)c3)nc12 [Example 146]
55 | CCCOc1nc(CN2CCCCC2c2nccs2)nc2oc(-c3cccc(F)c3)nc12 (stereo not drawn) [Example 147]
41 | CCCOc1nc(Cc2ccc(Cl)cc2)nc2oc(-c3ccc(N4CCOCC4)nc3)nc12 [Example 148]
102 | CCCOc1nc(Cc2ccc(Cl)cc2)nc2oc(-c3cc(C)cc(C)c3)nc12 [Example 149]
143 | CCCOc1nc(Cc2ccc(Cl)cc2)nc2oc(-c3ccncc3F)nc12 [Example 150]
26 | CCCOc1nc(Cc2ccc(Cl)cc2)nc2oc(-c3ccc(OC)nc3)nc12 [Example 151]
100 | CCCOc1nc(Cc2ccc(Cl)cc2)nc2oc(-c3ccc(O)c(F)c3)nc12 [Example 152]
84 | CCCOc1nc(Cc2ccc(Cl)cc2)nc2oc(-c3cncc(C)c3)nc12 [Example 153]
88 | CCCOc1nc(Cn2cnc(C)n2)nc2oc(-c3cccc(F)c3)nc12 [Example 154]
87 | CCCOc1nc(Cn2ncnc2C)nc2oc(-c3cccc(F)c3)nc12 [Example 155]
73 | CCCOc1nc(CC2CCOCC2)nc2oc(-c3cccc(C)c3)nc12 [Example 159]
69 | CCCOc1nc(CC2CCOCC2)nc2oc(-c3cccc(F)c3)nc12 [Example 160]
96 | Fc1cccc(-c2nc3c(OCC4CC4)nc(CC4CCOCC4)nc3o2)c1 [Example 161]
108 | CCCOc1nc(CC2CCC2)nc2oc(-c3cccc(C)c3)nc12 [Example 162]
118 | CCOc1nc(CC2CCC2)nc2oc(-c3cccc(C)c3)nc12 [Example 163]
98 | CCOc1nc(CC2CCC2)nc2oc(-c3cc(F)ccc3Cl)nc12 [Example 164]
97 | Cc1cccc(-c2nc3c(OCC4CC4)nc(CC4CCC4)nc3o2)c1 [Example 165]
42 | CCCOc1nc(Cc2cc(OC)cc(OC)c2)nc2oc(-c3cccc(C)c3)nc12 [Example 166]
102 | CCCOc1nc(Cc2ccc(Cl)cc2)nc2oc(-c3cc(C)ccc3F)nc12 [Example 167]
87 | CCCOc1nc(Cc2ccc(Cl)cc2)nc2oc(-c3ccc(Cl)c(C)c3)nc12 [Example 169]

% Activation (Edg-1 receptor activation in percent of the activation by 10 μM S1P) [%] | SMILES
89 | CCCOc1nc(Cc2ccc(Cl)cc2)nc2oc(-c3cccc(C)c3C)nc12 [Example 170]
115 | CCCOc1nc(Cc2ccc(Cl)cc2)nc2oc(-c3cccc(C)c3F)nc12 [Example 171]
78 | CCCOc1nc(Cc2ccc(Cl)cc2)nc2oc(-c3ccc(F)c(C)c3)nc12 [Example 172]
77 | CCCOc1nc(Cc2ccc(Cl)cc2)nc2oc(-c3cnc(N4CCN(C)CC4)nc3)nc12 [Example 173]
75 | CCCOc1nc(Cc2ccc(Cl)cc2)nc2oc(-c3cncnc3)nc12 [Example 174]
116 | CCCOc1nc(Cc2ccc(Cl)cc2)nc2oc(-c3ccc(C(C)=O)s3)nc12 [Example 175]
94 | CCCOc1nc(Cc2ccc(Cl)cc2)nc2oc(-c3ccc(OC)c(C)c3)nc12 [Example 176]
106 | CCCOc1nc(Cc2ccc(Cl)cc2)nc2oc(-c3cc(OC)ncc3Cl)nc12 [Example 177]
91 | CCCOc1nc(Cc2ccc(Cl)cc2)nc2oc(-c3ccc(N(C)C)c(C)c3)nc12 [Example 178]
87 | CCCOc1nc(CN2CCCC(O)C2)nc2oc(-c3cccc(F)c3)nc12 (stereo not drawn) [Example 179]
41 | CCCOc1nc(CN2C(C(=O)O)CCS2(=O)=O)nc2oc(-c3cccc(F)c3)nc12 (stereo not drawn) [Example 180]
58 | CCCOc1nc(CN2CCC(O)C2)nc2oc(-c3cccc(F)c3)nc12 (stereo not drawn) [Example 181]
108 | CCCOc1nc(CN2CCCCC2)nc2oc(-c3cccc(F)c3)nc12 [Example 182]
85 | CCCOc1nc(CN2CCCC2)nc2oc(-c3cccc(F)c3)nc12 [Example 183]
88 | CCCOc1nc(CN2CCOC[C@@H]2C)nc2oc(-c3cccc(F)c3)nc12 [Example 184]
97 | CCCOc1nc(CN2CCOC[C@@H]2CO)nc2oc(-c3cccc(F)c3)nc12 [Example 185]
123 | Cc1cccc(-c2nc3c(OC(C)C)nc(CN4CCOCC4)nc3o2)c1 [Example 186]
116 | Cc1cccc(-c2nc3c(OC4COC4)nc(CN4CCOCC4)nc3o2)c1 [Example 187]
112 | CCCOc1nc(Cc2ccccc2)nc2oc(-c3cc(C)c(OC)c(C)c3)nc12 [Example 188]
114 | COc1cccc(-c2nc3c(OCC(C)C)nc(Cc4ccccc4)nc3o2)c1 [Example 189]
66 | CCOc1nc(Cc2ccc(Cl)cc2)nc2oc(-c3cc(C)c(OC)c(C)c3)nc12 [Example 190]
98 | CCOc1nc(Cc2ccc(Cl)cc2)nc2oc(-c3cc(C)c(O)c(C)c3)nc12 [Example 191]
60 | CCCOc1nc(Cc2ccc(Cl)cc2)nc2oc(-c3cc(C)c(OCC(O)CN(C)C)c(C)c3)nc12 (stereo not drawn) [Example 192]
114 | CCCOc1nc(Cc2ccc(Cl)cc2)nc2oc(-c3cc(C)c(OCC(O)CN4CCOCC4)c(C)c3)nc12 (stereo not drawn) [Example 193]
98 | Cc1cc(-c2nc3c(OC(C)C)nc(Cc4ccc(Cl)cc4)nc3o2)cc(C)c1OCC(O)CN1CCOCC1 (stereo not drawn) [Example 194]

Same assay, conditions: example compound at 10 μM; relative to 10 μM S1P; GTP-γ-S SPA, human Edg-1 membranes; read-out: % Activation (Edg-1 receptor activation in percent of the activation by 10 μM S1P)

activation at 10 µM [%] | SMILES
117 | CCCOc1nc(Cc2ccc(Cl)cc2)nc2oc(-c3cc(C)c(OC)c(C)c3)nc12 [Example 168, 5-(4-chloro-benzyl)-2-(4-methoxy-3,5-dimethyl-phenyl)-7-propoxy-oxazolo[5,4-d]pyrimidine]
84 | CCCOc1nc(Cc2ccc(Cl)cc2)nc2oc(-c3cc(C)c(OCC(O)CNC(=O)c4ccccc4)c(C)c3)nc12 (stereo not drawn) [Example 195, N-(3-{4-[5-(4-Chloro-benzyl)-7-propoxy-oxazolo[5,4-d]pyrimidin-2-yl]-2,6-dimethyl-phenoxy}-2-hydroxy-propyl)-benzamide]
83 | CCOc1nc(Cc2ccc(Cl)cc2)nc2oc(-c3cc(C)c(OCC(O)CSc4nnc(C(C)C)[nH]4)c(C)c3)nc12 (stereo not drawn) [Example 196, 1-{4-[5-(4-Chloro-benzyl)-7-ethoxy-oxazolo[5,4-d]pyrimidin-2-yl]-2,6-dimethyl-phenoxy}-3-(5-isopropyl-4H-[1,2,4]triazol-3-ylsulfanyl)-propan-2-ol]
119 | CCOc1nc(Cc2ccc(Cl)cc2)nc2oc(-c3cc(C)c(OCC(O)CS(=O)(=O)c4nnc(C(C)C)[nH]4)c(C)c3)nc12 (stereo not drawn) [Example 197, 1-{4-[5-(4-Chloro-benzyl)-7-ethoxy-oxazolo[5,4-d]pyrimidin-2-yl]-2,6-dimethyl-phenoxy}-3-(5-isopropyl-4H-[1,2,4]triazole-3-sulfonyl)-propan-2-ol]
111 | CCCOc1nc(Cc2ccc(Cl)cc2)nc2oc(-c3cc(C)c(OCC(=O)O)c(C)c3)nc12 [Example 198, {4-[5-(4-Chloro-benzyl)-7-propoxy-oxazolo[5,4-d]pyrimidin-2-yl]-2,6-dimethyl-phenoxy}-acetic acid]
112 | CCCOc1nc(Cc2ccc(Cl)cc2)nc2oc(-c3cc(C)c(OCC(=O)NCC(=O)O)c(C)c3)nc12 [Example 199, (2-{4-[5-(4-Chloro-benzyl)-7-propoxy-oxazolo[5,4-d]pyrimidin-2-yl]-2,6-dimethyl-phenoxy}-acetylamino)-acetic acid]
